Data as given in patent publication US20250302815A1, “PROTEIN TYROSINE PHOSPHATASE TARGETING LIGANDS” (CALICO LIFE SCIENCES LLC, priority 2021, published 2025).

What was measured:
[1] = molecular target: T1, PTPN2 (B16F10.4 cells) (Mus musculus, UniProt Q06180); assay: HiBiT Degradation B16F10.4 PTPN2; format: cell-based; conditions: 24.0 hours
T1 construct: HiBiT; host or cells: B16F10.4
T1 sequence (Q06180 1-406): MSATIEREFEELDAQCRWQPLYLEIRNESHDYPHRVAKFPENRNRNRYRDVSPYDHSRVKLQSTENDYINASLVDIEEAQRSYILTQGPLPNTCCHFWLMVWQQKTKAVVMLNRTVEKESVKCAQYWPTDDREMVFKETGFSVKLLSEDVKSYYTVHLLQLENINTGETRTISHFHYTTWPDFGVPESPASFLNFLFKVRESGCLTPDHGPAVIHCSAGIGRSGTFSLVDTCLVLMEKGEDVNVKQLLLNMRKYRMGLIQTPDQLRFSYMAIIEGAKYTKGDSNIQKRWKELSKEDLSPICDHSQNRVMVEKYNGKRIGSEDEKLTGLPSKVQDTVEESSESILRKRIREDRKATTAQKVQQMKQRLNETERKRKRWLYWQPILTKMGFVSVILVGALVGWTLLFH

[2] = molecular target: T2, PTPN2 (HiBIT-PTPN2 in 293T.109 cells) (Homo sapiens, UniProt P17706); assay: HiBiT Degradation 293T.109 PTPN2 (Nano-Glo HiBiT Lytic Assay); format: cell-based; conditions: 24.0 hours
T2 construct: expressed in transfected cells; host or cells: 293T.109 (293T WT from ATCC)
T2 sequence (P17706 1-415): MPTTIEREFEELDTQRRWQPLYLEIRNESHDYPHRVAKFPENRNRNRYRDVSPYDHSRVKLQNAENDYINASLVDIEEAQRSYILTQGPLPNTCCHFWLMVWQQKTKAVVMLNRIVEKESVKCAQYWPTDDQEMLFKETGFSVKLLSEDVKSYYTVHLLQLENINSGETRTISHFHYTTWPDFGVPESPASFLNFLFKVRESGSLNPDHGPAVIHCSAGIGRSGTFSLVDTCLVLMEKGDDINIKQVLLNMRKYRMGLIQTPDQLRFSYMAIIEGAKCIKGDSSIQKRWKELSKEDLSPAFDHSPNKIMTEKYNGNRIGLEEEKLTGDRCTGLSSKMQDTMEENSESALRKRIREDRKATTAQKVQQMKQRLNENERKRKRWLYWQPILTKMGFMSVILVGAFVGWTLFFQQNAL
In short: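 293T.109 cells with ectopic N-terminal HiBiT-tagged PTPN2 (5000/well) exposed to compounds for 24 h at 37 °C, 5% CO2; 11-point half-log titration from 10 μM top, duplicates. Remaining HiBiT-PTPN2 read as luminescence with Nano-Glo HiBiT lytic reagent, normalised to untreated cells (0%) and reagent-free wells.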

DC50 [1] [nM] | DC50 [2] [nM] | Compound
50 to 200 | 50 to 200 | Cn1c(=O)n(C2CCC(=O)NC2=O)c2ccc(NC3CCN(C(=O)Nc4cccc(CS(=O)(=O)N5CC[C@H](Nc6cccc(-c7sc(C(=O)O)c(OCC(=O)O)c7Cl)c6)CC5(C)C)c4)CC3)cc21 (stereo partly drawn) [Example 81, 3-(carboxymethoxy)-4-chloro-5-[3-[[(4S)-1-[[3-[[4-[[1-(2,6-dioxo-3-piperidyl)-3-methyl-2-oxo-benzimidazol-5-yl]amino]piperidine-1-carbonyl]amino]phenyl]methylsulfonyl]-2,2-dimethyl-4-piperidyl]amino]phenyl]thiophene-2-carboxylic acid]
< 50 | < 50 | Cn1c(=O)n(C2CCC(=O)NC2=O)c2ccc(Cc3ccc(CC(=O)Nc4cccc(CS(=O)(=O)N5CC[C@H](Nc6cccc(-c7sc(C(=O)O)c(OCC(=O)O)c7Cl)c6)CC5(C)C)c4)cc3)cc21 (stereo partly drawn) [Example 236, 3-(carboxymethoxy)-4-chloro-5-[3-[[(4S)-1-[[3-[[2-[4-[[1-(2,6-dioxo-3-piperidyl)-3-methyl-2-oxo-benzimidazol-5-yl]methyl]phenyl]acetyl]amino]phenyl]methylsulfonyl]-2,2-dimethyl-4-piperidyl]amino]phenyl]thiophene-2-carboxylic acid]
200 to 1000 | 200 to 1000 | CC1(C)C[C@@H](Nc2cccc(-c3sc(C(=O)O)c(OCC(=O)O)c3Cl)c2)CCN1S(=O)(=O)Cc1cccc(NC(=O)N2CCC(c3ccc4c(ccn4C4CCC(=O)NC4=O)c3)CC2)c1 (stereo partly drawn) [Example 196, 3-(carboxymethoxy)-4-chloro-5-(3-(((4S)-1-((3-(4-(1-(2,6-dioxopiperidin-3-yl)-1H-indol-5-yl)piperidine-1-carboxamido)benzyl)sulfonyl)-2,2-dimethylpiperidin-4-yl)amino)phenyl)thiophene-2-carboxylic acid]
50 to 200 | 50 to 200 | COCCn1c(=O)n(C2CCC(=O)NC2=O)c2ccc(C3CCN(C(=O)Nc4cccc(CS(=O)(=O)N5CC[C@H](Nc6cccc(-c7sc(C(=O)O)c(OCC(=O)O)c7Cl)c6)CC5(C)C)c4)CC3)cc21 (stereo partly drawn) [Example 160, 3-(carboxymethoxy)-4-chloro-5-(3-(((4S)-1-((3-(4-(1-(2,6-dioxopiperidin-3-yl)-3-(2-methoxyethyl)-2-oxo-2,3-dihydro-1H-benzo[d]imidazol-5-yl)piperidine-1-carboxamido)benzyl)sulfonyl)-2,2-dimethylpiperidin-4-yl)amino)phenyl)thiophene-2-carboxylic acid]
≥ 1000 | 200 to 1000 | CC1(C)C[C@H](Nc2cccc(-c3sc(C(=O)O)c(OCC(=O)O)c3Cl)c2)CCN1S(=O)(=O)Cc1cccc(NC(=O)CCn2cc(CNc3cccc4c3C(=O)N(C3CCC(=O)NC3=O)C4=O)nn2)c1 (stereo partly drawn) [Example 14, 3-(carboxymethoxy)-4-chloro-5-(3-(((4R)-1-((3-(3-(4-(((2-(2,6-dioxopiperidin-3-yl)-1,3-dioxoisoindolin-4-yl)amino)methyl)-1H-1,2,3-triazol-1-yl)propanamido)benzyl)sulfonyl)-2,2-dimethylpiperidin-4-yl)amino)phenyl)thiophene-2-carboxylic acid]
200 to 1000 | 200 to 1000 | Cn1c(=O)n(C2CCC(=O)NC2=O)c2ccc(CCC(=O)Nc3cccc(CS(=O)(=O)N4CCC(Nc5cccc(-c6sc(C(=O)O)c(OCC(=O)O)c6Cl)c5)CC4)c3)cc21 (centres unmarked) [Example 49, 3-(carboxymethoxy)-4-chloro-5-(3-((1-((3-(3-(1-(2,6-dioxopiperidin-3-yl)-3-methyl-2-oxo-2,3-dihydro-1H-benzo[d]imidazol-5-yl)propanamido)benzyl)sulfonyl)piperidin-4-yl)amino)phenyl)thiophene-2-carboxylic acid]
50 to 200 | 50 to 200 | Cn1c(=O)n(C2CCC(=O)NC2=O)c2ccc(C3CCN(CC(=O)Nc4cccc(CS(=O)(=O)N5CCC(Nc6cccc(-c7sc(C(=O)O)c(OCC(=O)O)c7Cl)c6)CC5)c4)CC3)cc21 (centres unmarked) [Example 55, 3-(carboxymethoxy)-4-chloro-5-[3-[[1-[[3-[[2-[4-[1-(2,6-dioxo-3-piperidyl)-3-methyl-2-oxo-benzimidazol-5-yl]-1-piperidyl]acetyl]amino]phenyl]methylsulfonyl]-4-piperidyl]amino]phenyl]thiophene-2-carboxylic acid]
50 to 200 | < 50 | Cn1c(=O)n(C2CCC(=O)NC2=O)c2ccc(N3CC4(CN(C(=O)Nc5cccc(CS(=O)(=O)N6CC[C@H](Nc7cccc(-c8sc(C(=O)O)c(OCC(=O)O)c8Cl)c7)CC6(C)C)c5)C4)C3)cc21 (stereo partly drawn) [Example 140, 3-(carboxymethoxy)-4-chloro-5-[3-[[(4S)-1-[[3-[[6-[1-(2,6-dioxo-3-piperidyl)-3-methyl-2-oxo-benzimidazol-5-yl]-2,6-diazaspiro[3.3]heptane-2-carbonyl]amino]phenyl]methylsulfonyl]-2,2-dimethyl-4-piperidyl]amino]phenyl]thiophene-2-carboxylic acid]
≥ 1000 | 200 to 1000 | CC1(C)C[C@@H](Nc2cccc(-c3sc(C(=O)O)c(OCC(=O)O)c3Cl)c2)CCN1S(=O)(=O)Cc1cccc(NC(=O)N2CCC(Oc3ccc4c(c3)CN(C3CCC(=O)NC3=O)C4=O)CC2)c1 (some centres unmarked) [Example 76]
50 to 200 | 50 to 200 | CC(C)n1c(=O)n([C@@H]2CCC(=O)NC2=O)c2ccc(C3CCN(C(=O)Nc4cccc(CS(=O)(=O)N5CC[C@H](Nc6cccc(-c7sc(C(=O)O)c(OCC(=O)O)c7Cl)c6)CC5(C)C)c4)CC3)cc21 (single isomer, unassigned) [Example 87a]
50 to 200 | 50 to 200 | Cn1c(=O)n(C2CCC(=O)NC2=O)c2ccc(-c3ccc(CC(=O)Nc4cccc(CS(=O)(=O)N5CC[C@H](Nc6cccc(-c7sc(C(=O)O)c(OCC(=O)O)c7Cl)c6)CC5(C)C)c4)cc3F)cc21 (stereo partly drawn) [Example 178, 3-(carboxymethoxy)-4-chloro-5-(3-(((4S)-1-((3-(2-(4-(1-(2,6-dioxopiperidin-3-yl)-3-methyl-2-oxo-2,3-dihydro-1H-benzo[d]imidazol-5-yl)-3-fluorophenyl)acetamido)benzyl)sulfonyl)-2,2-dimethylpiperidin-4-yl)amino)phenyl)thiophene-2-carboxylic acid]
200 to 1000 | 50 to 200 | Cn1c(=O)n(C2CCC(=O)NC2=O)c2ccc(N3CCC(OCC(=O)Nc4cccc(CS(=O)(=O)N5CC[C@H](Nc6cccc(-c7sc(C(=O)O)c(OCC(=O)O)c7Cl)c6)CC5(C)C)c4)CC3)cc21 (stereo partly drawn) [Example 105, 3-(carboxymethoxy)-4-chloro-5-[3-[[(4S)-1-[[3-[[2-[[1-[1-(2,6-dioxo-3-piperidyl)-3-methyl-2-oxo-benzimidazol-5-yl]-4-piperidyl]oxy]acetyl]amino]phenyl]methylsulfonyl]-2,2-dimethyl-4-piperidyl]amino]phenyl]thiophene-2-carboxylic acid]
200 to 1000 | 200 to 1000 | CC1(C)C[C@@H](Nc2cccc(-c3sc(C(=O)O)c(OCC(=O)O)c3Cl)c2)CCN1S(=O)(=O)Cc1cccc(NC(=O)C2CCN(C(=O)CCc3cccc4c3CN(C3CCC(=O)NC3=O)C4=O)CC2)c1 (stereo partly drawn) [Example 61, 3-(carboxymethoxy)-4-chloro-5-(3-(((4S)-1-((3-(1-(3-(2-(2,6-dioxopiperidin-3-yl)-1-oxoisoindolin-4-yl)propanoyl)piperidine-4-carboxamido)benzyl)sulfonyl)-2,2-dimethylpiperidin-4-yl)amino)phenyl)thiophene-2-carboxylic acid]
